The subject of data set [1] is VACV. The format is cell-based, vaccinia virus. Particulars: 48 h.
In data set [2] the test system is VACV. The settings on record: cited from earlier work.
Another data set concerns poxvirus resolvases. The settings on record: cited from earlier work.
The next data set deals with MPXV resolvase (Mpr). It is filed as biochemical, monkeypox virus. Particulars: 50 µM.
The next data set relates to vaccinia virus (VACV). The data set is described as follows: microbe, parasite or virus in culture. It is filed as cell-based. The settings on record: for EC50: Orthopoxvirus vaccinia.
The subject of the next data set is VACV gene expression. It is filed as cell-based. The settings on record: 10 µM.
A further data set in a line: in vitro. The settings on record: human.
A short description of the next data set: in vivo. Particulars: male, CD-1, mouse.
The subject of the next data set is HCMV. The settings on record: cited from earlier work.
The subject of the next data set is VACV E3. It is filed as cell-based, vaccinia virus. The settings on record: 10 µM.
For data set [3] the following is noted: microsomes; cited from earlier work.
Data set [4] relates to VACV. It is filed as cell-based, vaccinia virus. Particulars: 10 µM.
In another data set the test system is pUL89C. The settings on record: cited from earlier work.
The conditions of data set [5]: male, CD-1, mouse, in vivo.
Another data set concerns VACV DNA replication. It is filed as cell-based, vaccinia virus. Particulars: 10 µM.
Data set [6] concerns VACV. It is filed as cell-based, vaccinia virus.

Each structure is given as a SMILES string. Entries after “also recorded” stand apart in the source; their conditions may differ.

For orientation: EC50 means the midpoint of the concentration-response curve. The low end stands for an effect from little substance, the high end for a need for much substance. Broadly, the bioavailability is the share of a dose that reaches the circulation, judged against a reference dose that is usually intravenous. Low readings indicate poor availability, high ones good availability. As a reminder, the AUC(0-t) is exposure summed from dosing to a finite time, without extrapolation to infinity. Low readings indicate low exposure, high ones high exposure. By Cmax is commonly meant the maximum level reached in the sampled fluid or tissue. The MRT last is a mean duration of stay, worked out from the concentration-time curve. As a reminder, the Tmax is the time at which the peak concentration occurs. A word on the clearance: it is a measure of how efficiently the substance is removed, as volume per time. A high value points to a high capacity for elimination. The half-life is the time needed for the level to fall by half in the phase considered.

Consider `Nc1ccn([C@@H]2O[C@H](CO)[C@@H](O)[C@@H]2O)c(=O)n1` [AraC, Cytarabine, reference compound], for which, in the data set with VACV [1], the “late viral gene expression in rhesus colon enteroids” value was “markedly reduced”.
`Cc1cc(C2CCCCC2)n(O)c(=O)c1` [Ciclopirox]: in the data set on VACV [2], the “inhibition of VACV replication” value was “efficient inhibitors of VACV replication”.
For the molecule `O=c1c(-c2ccccc2)c(O)c2cc(-c3cccc(-c4ccccc4)c3)cnc2n1O` [Compound 1, reference compound], in the data set on poxvirus resolvases, the “inhibition of poxvirus resolvases” value is “potently inhibits”. Moreover, the Mpr inhibition result with MPXV resolvase (Mpr) is on record as “nearly complete inhibition”.
In the case of `O=C(NNc1nc2cc(F)ccc2n2cccc12)c1cnccn1` [SC144], the “inhibition of VACV replication” value with VACV [2] is on record as “efficient inhibitors of VACV replication”.
As for `O=C(NN1C(=O)[C@@H]2[C@@H]3C=C[C@@H]([C@H]4C[C@@H]34)[C@@H]2C1=O)c1ccc(C(F)(F)F)cc1` [Tecovirimat, reference compound], the response in the data set on vaccinia virus (VACV) was half-maximal at 25 nM (EC50).
As to `O=C(NCCc1ccc(F)cc1F)c1cn(Cc2ccc(F)cc2)cc(O)c1=O` [ZW-2038], in the data set with VACV gene expression, the “luciferase activity from the early promoter (vEGluc)” value was “did not affect”, the “reporter activity from intermediate promoter (vIGluc)” value is “significantly diminished” and the “reporter activity from late promoter (vLGluc)” value is listed as “significantly diminished”. The molecule further displayed a CC50 in “in vitro” of more than 500000 nM. In the data set “in vivo” (Bioavailability (F, %)), the bioavailability came out at 4%. Besides, in the data set “in vivo” (iv, 2 mg/kg), the area under the curve AUC(0-t) is 238 ± 54 ng·h/mL, the Cmax was found to be 528 ng/mL, the MRT last came to 0.9 ± 0.4 h and the Tmax is 0.08 h. In “in vivo” (iv, 2 mg/kg), this molecule had a clearance of 150 mL/min/kg and a half-life of 5 ± 2 h. In the data set “in vivo” (po, 20 mg/kg), the AUC(0-t) came to 98 ± 15 ng·h/mL, the concentration peaked (Cmax) at 38 ng/mL, the MRT last was 11 ± 2 h and the Tmax was determined as 0.2 ± 0.2 h. In addition, the half-life in the data set “in vivo” (po, 20 mg/kg) was 104 ± 159 h. Besides, the “inhibition of HCMV” value in the data set with HCMV is given as “potently inhibited”. Moreover, in the data set on VACV E3, the E3 levels result is “did not reduce”. Besides, in data set [3], the microsomal stability result was “good”. Further, the “VACV titers in ex vivo mouse lung tissue” value in the data set with VACV [4] is given as “consistently reduced”. Further, the “inhibition of pUL89C” value in the data set with pUL89C is recorded as “did not inhibit”. For the same molecule, in data set [5], the “Bioavailability (F, %)” value is listed as 4.1% and the “oral Cmax lower than IV Cmax” value is 14 fold. Moreover, in [5] (po, 20 mg/kg), the CL amounted to 67 ± 50 mL/min/kg and the V is listed as 117 ± 46 L/kg. For the same molecule, the “reduction of Gaussia luciferase activity” value with vaccinia virus (VACV) (10 µM) is “more than 99%”. A half-maximal response in the data set with vaccinia virus (VACV) (EC50) required 876 nM. In addition, the Mpr inhibition result in the data set with MPXV resolvase (Mpr) was “no Mpr inhibition; also recorded: did not inhibit”. For the same molecule, the “viral DNA accumulation” value with VACV DNA replication was “marked reduction”. Further, the “viral replication (luciferase activity) in human jejunum enteroids” value in the data set on VACV [6] was “significantly suppressed”. In the data set with HFFs, the “cell viability compared to vehicle” value is listed as “no significant difference”. Besides, in the data set on VACV [1], the “late viral gene expression in rhesus colon enteroids” value is recorded as “markedly reduced”.
